{"source": "patent US8501205B2", "about": "“Insect repellent composition” (priority 2006, dated 2013)", "key": {"All mosquitoes": {"tested_on": "All mosquitoes", "assay": "Study B Peru field trial, human-landing catch, all mosquitoes", "format": "in vivo, mosquitoes (86% Anopheles darlingi)", "conditions": "for % P = percentage protection / AM = arithmetic mean mosquito landings/hour / WM = William's mean mosquito landings/hour: All mosquitoes", "text": "(§1) Study B—Peru Study. Repellent formulations (% by weight) were used: (1) “PMD+LG” containing about 16% PMD as indicated in Example 1—PMD obtained from Coolact® 38D; (2) positive control: 20% DEET (Sigma Aldridge) in ethanol (Sigma-Aldrich Co.); (3) negative control: 20% mineral oil (ExxonMobil Corporation) in ethanol.\n(§2) Study A and B, Both studies were controlled double blind, human-landing catch design. All solutions were placed in unmarked containers labeled by code. On any one night, human volunteers had both lower legs treated with either one of the PMD/LG candidate repellents or a positive or negative control at a rate of 0.002 ml/cm^2 between the ankle and the knee. Volunteers' leg length and circumference were measured to calculate surface area and the correct dose of treatment was measured using a micropipette, and applied using a latex glove to minimize absorption of material onto the hand of the volunteer. During the human-landing catches, the volunteers wore shorts to the knee, work boots, and a loose bug jacket (ProBuy) to ensure that blood-seeking mosquitoes had access only to their lower legs.\n(§3) The designated locations within the field sites were 10 m from each other and a minimum of 20 m from alternate sources of kairomones such as houses and livestock. As insect repellents act over a distance of less than a meter, and the maximum distance of host attraction of a single human to mosquitoes is 10 m,^29 the design eliminates any “relativity effect” where insects choose between two hosts simultaneously. Mosquitoes were collected from the lower legs of the volunteers once they had settled—without the need to wait for biting—by using a mouth aspirator, flashlight, and a collection vessel. Collection vessels were changed each hour to provide hourly measures of repellency. Umbrellas were also provided, to protect the volunteers from any rain showers that might wash away their repellent.\n(§4) All volunteers were experienced at conducting man-landing catches. A form outlining procedure was given to the volunteers to ensure that they had full understanding of the potential risks of a study of this kind. In addition, each was given chloroquine (Guatemala) or Mefloquine (Peru) prophylaxis in accordance with WHO guidelines.^30 Full ethical clearance was obtained from Universidad del Valle, Guatemala (Study A); and from London School of Hygiene and Tropical Medicine Ethics Board and Instituto Nacional de Salud, Peru (Study B).\n(§5) Study B. The repellent and two controls were applied at 1600 hrs, and man-landing collections were performed at the field, between 1800 and 2200 hours, as this is the time of peak An. darlingi activity in the area (Chan, A. unpublished data). The times chosen allowed an assessment of the protection afforded by the repellent over to be made of relative protection of the samples for a period of 6 hours while exposing volunteers to bites for only 4 hours. This helped minimize exposure and risk to the collectors. The volunteers took a 15-minute break between 2000 hrs and 2015 hrs. The study was a 3×3 balanced Latin-square design performed using three volunteers over nine nights, with volunteers changing positions every third night. Due to unforeseen circumstances, one of the volunteers was replaced after 4 nights, and this was factored into the statistical analysis.\n(§6) Mosquitoes were maintained overnight and killed by cooling prior to identification the following morning. Data were normalized using natural log ([…]) and analyzed with General Linear Model (GLM) using Minitab 11.0 for Windows. Further testing of individual variables was performed using Kruskal Wallis, as data could not be sufficiently normalized to use one-way Analysis of Variance (ANOVA) due to low collection numbers on repellent-treated individuals."}, "Anopheles darlingi": {"tested_on": "Anopheles darlingi", "assay": "Study B Peru field trial, human-landing catch, Anopheles darlingi", "format": "in vivo", "text": "as §1, §2, §3, §4, §5, §6"}, "host-seeking mosquitoes": {"tested_on": "host-seeking mosquitoes", "assay": "Study A Guatemala field trial, human-landing catch on treated lower legs", "format": "in vivo, Psorophora varipes, Aedes Ochlerotatus taeniorhynchus", "text": "Study A—Guatemala Study. The following repellent formulations (% by weight) were used: (1) C15: repellent containing the amounts of ingredients described in Example 1—the PMD obtained from acid modification of Coryinbia citriodora oil, CAS: 42822-86-6, purchased from Chemian Technology Ltd under the trademark Citriodiol®; (2)115: repellent containing the amounts of ingredients described in Example 1—the PMD obtained from Coolact® 38D; (3) T20: containing 20 wt % PMD instead of 15%, obtained from Coolact® 38D; (4) positive control: 15% DEET (N,N-diethyl-meta-toluamide, CAS 134-62-3; Sigma-Aldrich Co.) in ethanol; (5) negative control: mixture of 20% mineral oil and ethanol.\nas §2, §3, §4\nStudy A. The three repellents and two controls were applied to the five volunteers at 1430 hrs, and man-landing catches were performed at the field site for one hour before and after sunset (1730-1930 hrs), when the evening mosquito biting is at its peak as shown by preliminary man-landing catches. The times chosen allowed an assessment of the protection afforded by the repellent over 5 hours while exposing volunteers to bites for only 2 hours. This helped minimize exposure and risk to the collectors. The study was a balanced 5×5 Latin-square design that required each volunteer to test each treatment five times throughout the study over a period of twenty-five nights. Every evening, each individual was allocated one of five treatments, and sat in one of five allocated positions. Consequently, the volunteers changed position every five days.\nMosquitoes were maintained overnight and killed by cooling prior to identification the following morning. Data were normalized using natural log ([…]) and analyzed with General Linear Model (GLM) using Minitab 11.0 for Windows. […]"}, "An. darlingi": {"tested_on": "An. darlingi", "conditions": "for 4 hours after application; biting pressure 75 mosquito landings per human-hour; cited from earlier work"}, "[1]": {"conditions": "Mean of 4 and 5 hours post application"}}, "note": "Marks after values point to notes of the source that are not given here."}
{"smiles": "CCN(CC)C(=O)c1cccc(C)c1", "note": "[20% DEET, N,N-diethyl-meta-toluamide]", "values": [{"measurement": "average protection", "setting": "All mosquitoes; 6 hours after application / over the duration of the trial", "value": 62, "unit": "%"}, {"measurement": "% P = percentage protection", "setting": "All mosquitoes; 3 hours post application", "value": 65.77, "unit": "%"}, {"measurement": "AM = arithmetic mean mosquito landings/hour", "setting": "All mosquitoes; 3 hours post application", "value": 15.22, "unit": "mosquito landings/hour"}, {"measurement": "WM = William's mean mosquito landings/hour", "setting": "All mosquitoes; 3 hours post application", "value": 10.59, "unit": "mosquito landings/hour"}, {"measurement": "% P = percentage protection", "setting": "All mosquitoes; 4 hours post application", "value": 68.12, "unit": "%"}, {"measurement": "AM = arithmetic mean mosquito landings/hour", "setting": "All mosquitoes; 4 hours post application", "value": 19.78, "unit": "mosquito landings/hour"}, {"measurement": "WM = William's mean mosquito landings/hour", "setting": "All mosquitoes; 4 hours post application", "value": 16.12, "unit": "mosquito landings/hour"}, {"measurement": "% P = percentage protection", "setting": "All mosquitoes; 5 hours post application", "value": 63.80, "unit": "%"}, {"measurement": "AM = arithmetic mean mosquito landings/hour", "setting": "All mosquitoes; 5 hours post application", "value": 13.89, "unit": "mosquito landings/hour"}, {"measurement": "WM = William's mean mosquito landings/hour", "setting": "All mosquitoes; 5 hours post application", "value": 11.68, "unit": "mosquito landings/hour"}, {"measurement": "% P = percentage protection", "setting": "All mosquitoes; 6 hours post application", "value": 52.08, "unit": "%"}, {"measurement": "AM = arithmetic mean mosquito landings/hour", "setting": "All mosquitoes; 6 hours post application", "value": 18.44, "unit": "mosquito landings/hour"}, {"measurement": "WM = William's mean mosquito landings/hour", "setting": "All mosquitoes; 6 hours post application", "value": 15.28, "unit": "mosquito landings/hour"}, {"measurement": "% P = percentage protection", "setting": "All mosquitoes; Mean of 3-6 hours", "value": 63.63, "unit": "%"}, {"measurement": "AM = arithmetic mean mosquito landings/hour", "setting": "All mosquitoes; Mean of 3-6 hours", "value": 16.83, "unit": "mosquito landings/hour"}, {"measurement": "WM = William's mean mosquito landings/hour", "setting": "All mosquitoes; Mean of 3-6 hours", "value": "13.30^c mosquito landings/hour"}, {"measurement": "% P = percentage protection", "setting": "Anopheles darlingi; 3 hours post application", "value": 56.43, "unit": "%"}, {"measurement": "AM = arithmetic mean mosquito landings/hour", "setting": "Anopheles darlingi; 3 hours post application", "value": 13.56, "unit": "mosquito landings/hour"}, {"measurement": "WM = William's mean mosquito landings/hour", "setting": "Anopheles darlingi; 3 hours post application", "value": 9.59, "unit": "mosquito landings/hour"}, {"measurement": "% P = percentage protection", "setting": "Anopheles darlingi; 4 hours post application", "value": 66.53, "unit": "%"}, {"measurement": "AM = arithmetic mean mosquito landings/hour", "setting": "Anopheles darlingi; 4 hours post application", "value": 18.33, "unit": "mosquito landings/hour"}, {"measurement": "WM = William's mean mosquito landings/hour", "setting": "Anopheles darlingi; 4 hours post application", "value": 14.96, "unit": "mosquito landings/hour"}, {"measurement": "% P = percentage protection", "setting": "Anopheles darlingi; 5 hours post application", "value": 62.21, "unit": "%"}, {"measurement": "AM = arithmetic mean mosquito landings/hour", "setting": "Anopheles darlingi; 5 hours post application", "value": 12.89, "unit": "mosquito landings/hour"}, {"measurement": "WM = William's mean mosquito landings/hour", "setting": "Anopheles darlingi; 5 hours post application", "value": 10.59, "unit": "mosquito landings/hour"}, {"measurement": "% P = percentage protection", "setting": "Anopheles darlingi; 6 hours post application", "value": 51.41, "unit": "%"}, {"measurement": "AM = arithmetic mean mosquito landings/hour", "setting": "Anopheles darlingi; 6 hours post application", "value": 17.22, "unit": "mosquito landings/hour"}, {"measurement": "WM = William's mean mosquito landings/hour", "setting": "Anopheles darlingi; 6 hours post application", "value": 13.59, "unit": "mosquito landings/hour"}, {"measurement": "% P = percentage protection", "setting": "Anopheles darlingi; Mean of 3-6 hours", "value": 61.40, "unit": "%"}, {"measurement": "AM = arithmetic mean mosquito landings/hour", "setting": "Anopheles darlingi; Mean of 3-6 hours", "value": 15.00, "unit": "mosquito landings/hour"}, {"measurement": "WM = William's mean mosquito landings/hour", "setting": "Anopheles darlingi; Mean of 3-6 hours", "value": "12.07^c mosquito landings/hour"}]}
{"smiles": "CCN(CC)C(=O)c1cccc(C)c1", "note": "[15% DEET, N,N-diethyl-meta-toluamide]", "values": [{"measurement": "% P = percentage protection", "setting": "host-seeking mosquitoes; 4 hours post application", "value": 94.52, "unit": "%"}, {"measurement": "WM = William's mean mosquito landings/hour", "setting": "host-seeking mosquitoes; 4 hours post application", "value": 3.63, "unit": "mosquito landings/hour"}, {"measurement": "AM = arithmetic mean mosquito landings/hour", "setting": "host-seeking mosquitoes; 4 hours post application, 0.002 ml/cm^2 on lower legs", "value": 6.33, "unit": "mosquito landings/hour"}, {"measurement": "% P = percentage protection", "setting": "host-seeking mosquitoes; 5 hours post application", "value": 87.85, "unit": "%"}, {"measurement": "AM = arithmetic mean mosquito landings/hour", "setting": "host-seeking mosquitoes; 5 hours post application", "value": 12.21, "unit": "mosquito landings/hour"}, {"measurement": "WM = William's mean mosquito landings/hour", "setting": "host-seeking mosquitoes; 5 hours post application", "value": 4.87, "unit": "mosquito landings/hour"}, {"measurement": "% P = percentage protection", "setting": "host-seeking mosquitoes; [1]", "value": 91.42, "unit": "%"}, {"measurement": "AM = arithmetic mean mosquito landings/hour", "setting": "host-seeking mosquitoes; [1]", "value": 9.27, "unit": "mosquito landings/hour"}, {"measurement": "WM = William's mean mosquito landings/hour", "setting": "host-seeking mosquitoes; [1]", "value": "3.60^c mosquito landings/hour"}, {"measurement": "protection from host-seeking mosquitoes", "setting": "host-seeking mosquitoes; up to five hours after application, biting pressure 108 mosquitoes per man hour", "value": 91, "unit": "%"}, {"measurement": "protection", "setting": "An. darlingi", "value": 85, "unit": "%"}]}
